One compound from patent US12290535B2, “Langerin+ cell targeting” (Max-Planck-Gesellschaft zur Förderung der Wissenschaften …, priority 2018, dated 2025) can be followed below.

In this experiment the target is T1, Langerin CRD (Homo sapiens, UniProt Q9UJ71, V278A).
T1 construct: residues 193 to 328; made in house; host or cells: E. coli BL21* (DE3)
The experiment can be described thus: 15N HSQC NMR titration (KD determination). Format: binding. As for the experimental part: Langerin and DC-SIGN carbohydrate recognition domain. Expression and purification were conducted as previously published. Briefly, the monomeric ^15N-labeled Langerin and DC-SIGN carbohydrate recognition domains (CRDs) were expressed insolubly in E. coli BL21* (DE3) (Invitrogen). Following enzymatic cell lysis, inclusion bodies were harvested and subsequently solubilized. The sample was centrifuged and the Langerin and DC-SIGN CRDs were refolded overnight via rapid dilution. Next, the sample was dialyzed overnight, centrifuged and purified via StrepTactin affinity chromatography (Iba). […] The concentration of Langerin and DC-SIGN CRDs was determined via UV spectroscopy (A280, 0.1%=3.19 and A280, 0.1%=2.98). Purity and monodispersity of Langerin and DC-SIGN CRD samples were analyzed via SDS PAGE and DLS. […]
KD determination. KD values were determined in titration experiments at six ligand concentrations [L]T. Samples were prepared via serial dilution. Chemical shift perturbations CSPs for Langerin CRD resonances in the fast or fast-to-intermediate exchange regime observed upon titration with ligand were calculated via Equation 1 (Williamson, M. P. Using Chemical Shift Perturbation to Characterise Ligand Binding. Prog Nucl Magn Reson Spectrosc 73, 1-16 (2013)). […]

T1 sequence (Q9UJ71 193-328 V278A): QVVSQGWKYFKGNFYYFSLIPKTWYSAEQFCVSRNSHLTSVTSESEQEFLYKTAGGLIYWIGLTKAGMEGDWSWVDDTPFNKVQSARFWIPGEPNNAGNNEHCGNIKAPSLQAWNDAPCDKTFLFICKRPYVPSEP

For `CC(=O)NCCO[C@H]1O[C@H](CO)[C@@H](O)[C@H](O)[C@@H]1O` [Man analog 21], the affinity, expressed as Kd, was 12 ± 1 mM.
